Reference: BindingDB's records for doi:10.1016/j.chembiol.2011.01.012 (University of Luxembourg, 2011)

Assays:
[1] = target: Non-receptor tyrosine-protein kinase TYK2 (Homo sapiens, UniProt P29597); assay: Enzyme Assay; settings: pH 7.5; 30 °C
[2] = target: Tyrosine-protein kinase JAK1 (Homo sapiens, UniProt P23458); assay: Enzyme Assay; settings: pH 7.5; 30 °C
Sequence of Tyrosine-protein kinase JAK1 (P23458 whole entry): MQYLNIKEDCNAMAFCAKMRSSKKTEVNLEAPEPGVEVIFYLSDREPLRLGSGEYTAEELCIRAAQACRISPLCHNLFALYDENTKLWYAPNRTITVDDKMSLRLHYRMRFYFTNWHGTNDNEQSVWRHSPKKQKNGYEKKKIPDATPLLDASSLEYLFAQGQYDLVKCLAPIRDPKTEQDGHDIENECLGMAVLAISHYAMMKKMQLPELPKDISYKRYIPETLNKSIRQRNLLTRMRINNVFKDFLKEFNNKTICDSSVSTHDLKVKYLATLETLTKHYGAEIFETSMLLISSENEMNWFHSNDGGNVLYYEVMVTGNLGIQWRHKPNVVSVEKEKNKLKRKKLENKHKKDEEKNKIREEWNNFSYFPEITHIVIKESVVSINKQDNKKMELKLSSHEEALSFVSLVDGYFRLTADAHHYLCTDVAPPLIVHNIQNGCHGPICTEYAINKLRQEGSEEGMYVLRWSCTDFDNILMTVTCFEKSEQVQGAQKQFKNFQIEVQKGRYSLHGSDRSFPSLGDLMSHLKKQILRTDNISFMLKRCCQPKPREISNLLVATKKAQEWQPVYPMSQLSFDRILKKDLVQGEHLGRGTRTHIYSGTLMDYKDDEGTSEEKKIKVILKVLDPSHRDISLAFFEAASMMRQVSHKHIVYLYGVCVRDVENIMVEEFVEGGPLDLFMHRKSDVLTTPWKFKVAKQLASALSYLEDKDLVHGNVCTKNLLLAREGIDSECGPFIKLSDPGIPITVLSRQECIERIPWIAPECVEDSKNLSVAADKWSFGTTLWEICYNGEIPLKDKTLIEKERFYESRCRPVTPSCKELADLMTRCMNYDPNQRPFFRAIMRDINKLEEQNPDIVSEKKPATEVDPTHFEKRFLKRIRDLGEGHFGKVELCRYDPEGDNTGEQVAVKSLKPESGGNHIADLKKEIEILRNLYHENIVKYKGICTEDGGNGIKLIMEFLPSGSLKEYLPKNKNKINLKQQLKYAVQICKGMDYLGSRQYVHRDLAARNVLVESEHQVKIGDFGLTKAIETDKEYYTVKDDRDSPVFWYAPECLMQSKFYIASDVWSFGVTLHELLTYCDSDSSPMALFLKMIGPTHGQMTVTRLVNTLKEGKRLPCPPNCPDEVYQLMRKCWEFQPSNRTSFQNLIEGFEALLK

Sequence of Non-receptor tyrosine-protein kinase TYK2 (P29597 whole entry): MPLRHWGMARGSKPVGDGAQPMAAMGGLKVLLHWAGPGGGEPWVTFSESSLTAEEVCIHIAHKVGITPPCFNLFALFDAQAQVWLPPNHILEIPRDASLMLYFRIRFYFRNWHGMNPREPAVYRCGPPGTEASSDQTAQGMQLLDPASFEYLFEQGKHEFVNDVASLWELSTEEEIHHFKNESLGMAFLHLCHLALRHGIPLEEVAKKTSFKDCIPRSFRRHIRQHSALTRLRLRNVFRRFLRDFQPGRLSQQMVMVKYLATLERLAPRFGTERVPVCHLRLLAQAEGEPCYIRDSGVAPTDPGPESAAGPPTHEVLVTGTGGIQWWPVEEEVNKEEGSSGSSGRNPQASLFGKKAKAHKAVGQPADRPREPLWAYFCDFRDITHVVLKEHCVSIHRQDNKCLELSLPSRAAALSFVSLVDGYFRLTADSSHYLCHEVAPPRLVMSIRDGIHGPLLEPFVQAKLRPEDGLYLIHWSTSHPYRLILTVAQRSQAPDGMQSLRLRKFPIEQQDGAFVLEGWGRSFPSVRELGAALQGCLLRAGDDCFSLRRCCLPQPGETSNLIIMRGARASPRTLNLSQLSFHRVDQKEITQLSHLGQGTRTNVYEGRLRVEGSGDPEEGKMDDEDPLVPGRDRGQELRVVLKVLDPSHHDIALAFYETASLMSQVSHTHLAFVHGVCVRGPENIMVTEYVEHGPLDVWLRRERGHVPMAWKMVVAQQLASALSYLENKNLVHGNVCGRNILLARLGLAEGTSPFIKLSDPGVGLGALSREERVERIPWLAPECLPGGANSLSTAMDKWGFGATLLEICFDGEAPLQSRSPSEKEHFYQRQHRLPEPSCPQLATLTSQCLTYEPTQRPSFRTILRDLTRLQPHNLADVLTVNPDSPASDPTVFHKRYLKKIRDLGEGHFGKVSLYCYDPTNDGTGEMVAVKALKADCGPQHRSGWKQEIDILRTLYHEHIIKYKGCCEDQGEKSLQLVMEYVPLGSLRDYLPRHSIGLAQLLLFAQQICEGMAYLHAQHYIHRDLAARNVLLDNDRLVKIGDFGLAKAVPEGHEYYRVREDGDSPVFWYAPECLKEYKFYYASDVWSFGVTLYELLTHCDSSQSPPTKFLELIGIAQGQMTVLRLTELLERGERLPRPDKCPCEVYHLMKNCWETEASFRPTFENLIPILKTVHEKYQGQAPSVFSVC

IC50 [1]: 8.05 µM
IC50 [2]: 1.02 µM
Compound: CC(C)(O)C(=O)N1CCN(c2ccc(C(F)(F)F)c(C3=C(c4c[nH]c5ccccc45)C(=O)NC3=O)c2)CC1 [NIBR3049]
